Laboratory results reported in patent publication US20130189764A1, “SELECTIVE GROWTH MEDIA” (Oxide Limited, priority 2000, published 2013).
In brackets after ≈: the same amount, converted by molar mass. Values belong to the molecule of their own block, whether it stands above or below them.

Legend:
Citrobacter freundii 370 = assay: MIC in DMSal medium (Example 17); assay type: cell-based; settings: Citrobacter freundii 370, DMSal medium
[1] = system: Enterobacter sakazakii 1888; assay: MIC in DMSal medium (Example 17); assay type: cell-based; settings: Enterobacter sakazakii 1888, DMSal medium
E. coli 607 = assay: MIC in DMSal medium (Example 17); assay type: cell-based; settings: E. coli 607, DMSal medium
[2] = system: Salmonella typhimurium 722; assay: MIC in DMSal medium (Example 17); assay type: cell-based
Protocol: (§1) Isoleucyl-AEP and sarcosyl-alanyl-AEP were compared to ala-AEP (all in DMSal medium) for the ability to selectively recover two clinically important pathogenic bacteria: Salmonella and Staphylococcus aureus.
(§2) For selective growth of Salmonella inhibition of Citrobacter, Enterobacter sakazakii and E. coli is important. […] Sarcosyl-alanyl-AEP used at a concentration of 1.0 μg/ml is sufficient to inhibit the growth of all three undesired bacteria while having no effect on growth of Salmonella typhimurium. […] Alternatively, a concentration of 2.0 μg/ml of isoleucyl-AEP is required to inhibit the growth of Citrobacter, Enterobacter sakazakii and E. coli and this concentration has no effect on the Salmonella typhimurium strain tested.

[3] = system: Enterococcus faecalis 501; assay: MIC in DMSal medium (Example 17); assay type: cell-based; settings: Enterococcus faecalis 501, DMSal medium
[4] = system: Enterococcus faecalis 581; assay: MIC in DMSal medium (Example 17); assay type: cell-based; settings: Enterococcus faecalis 581, DMSal medium
From the text: as §1

S. aureus (MRSA) 934 = assay: MIC in DMSal medium (Example 17); assay type: cell-based; settings: S. aureus (MRSA) 934, DMSal medium
From the text: as §1

S. aureus 198 = assay: MIC in DMSal medium (Example 17); assay type: cell-based; settings: S. aureus 198, DMSal medium
From the text: as §1

S. aureus ss aureus 2355 = assay: MIC in DMSal medium (Example 17); assay type: cell-based; settings: S. aureus ss aureus 2355, DMSal medium
From the text: as §1

[5] = system: Enterococcus faecalis 640; assay: MIC in DMSal medium (Example 17); assay type: cell-based; settings: Enterococcus faecalis 640, DMSal medium
Enterococcus faecium 220 = assay: MIC in DMSal medium (Example 17); assay type: cell-based; settings: Enterococcus faecium 220, DMSal medium
[6] = system: Citrobacter, Enterobacter sakazakii and E. coli; assay: inhibition of the three undesired bacteria in DMSal (Example 17); assay type: cell-based
Protocol: as §1, §2

[7] = log octanol/water; footnote a: Leo et al (1971); cited from earlier work
[8] = system: Bacillus subtilis strain OCC 214; assay: growth on nutrient agar streak plates, pure culture (Example 1); assay type: cell-based; settings: B. subtilis OCC214, nutrient agar, 0-10 mM tested
From the text: In example 1 the sensitivity of Bacillus subtilis strain OCC 214 to alaphosphin or AEP was investigated. […] The organism is known to be LALA-ve, so the observations agree with the known characteristics of the organism.

[9] = system: Salmonella typhimurium OCC 1870; assay: growth on nutrient agar streak plates, pure culture (Example 2); assay type: cell-based; settings: S. typhimurium OCC 1870, nutrient agar, 0-10 mM tested
From the text: Example 1 was repeated, using Salmonella typhimurium OCC 1870 as the test organism. The results are shown in FIG. 3, which uses the same key as FIG. 2.

[10] = system: Enterococcus faecalis OCC 640; assay: growth on nutrient agar streak plates, pure culture (Example 3); assay type: cell-based; settings: E. faecalis OCC 640, nutrient agar, 0-10 mM tested
From the text: Example 1 was repeated using Enterococcus faecalis OCC 640 as the test organism.

[11] = system: Klebsiella pneumoniae CMCC 3077; assay: growth on nutrient agar streak plates, pure culture (Example 4); assay type: cell-based; settings: K. pneumoniae CMCC 3077, nutrient agar, 0-10 mM tested
From the text: Example 1 was repeated using Klebsiella pneumoniae CMCC 3077 as the test organism. The results are shown in FIG. 5, and are qualitatively similar to those obtained in example 2.

[12] = system: Staphylococcus aureus OCC 102; assay: growth on nutrient agar streak plates, pure culture (Example 5); assay type: cell-based; settings: S. aureus OCC 102, nutrient agar, all concentrations tested (up to 10 mM)
From the text: Example 1 was repeated using Staphylococcus aureus OCC 102 as the test organism.

K. pneumoniae CMCC 3077 [13] = assay: growth on nutrient agar, mixed culture with S. aureus (Example 6); assay type: cell-based, Klebsiella pneumoniae
From the text: (§3) Example 1 was repeated, this time using a mixed culture of K. pneumoniae CMCC 3077 and S. aureus OCC 102. The results for growth in the presence of AEP or alaphosphin are shown in FIGS. 7 and 8 respectively: empty columns represent growth of S. aureus, the shaded columns represent growth of K. pneumoniae. […] Accordingly, there is a considerable alaphosphin concentration range over which S. aureus will readily grow whilst K. pneumoniae will be inhibited. Even if K. pneumoniae cells lyse due to the toxic effect of AEP released intracellularly, the AEP is not toxic for S. aureus at the concentrations involved.

S. aureus OCC 102 = assay: growth on nutrient agar, mixed culture with K. pneumoniae (Example 6); assay type: cell-based, Staphylococcus aureus
From the text: as §3

B. subtilis OCC 214 = assay: growth on nutrient agar, mixed culture with K. pneumoniae (Example 8); assay type: cell-based, Bacillus subtilis; settings: B. subtilis in mixed culture with K. pneumoniae
From the text: (§4) Example 6 was repeated, this time using a mixed culture of B. subtilis OCC 214 and K. pneumoniae CMCC 3077, in the presence of AEP or alaphosphin. The empty columns show the growth of B. subtilis, the shaded columns denote growth of K. pneumoniae.

K. pneumoniae CMCC 3077 [14] = assay: growth on nutrient agar, mixed culture with B. subtilis (Example 8); assay type: cell-based, Klebsiella pneumoniae; settings: all concentrations tested
From the text: as §4

[15] = system: Klebsiella pneumoniae CMCC3077; assay: total viable count in Nutrient Broth (Example 10); assay type: cell-based; settings: 5 mM in Nutrient Broth, 37° C.
Protocol: Growth curve data on the activity of alaphosphin towards Klebsiella spp. was generated. Particular attention was paid to measuring the kinetics of inhibition in broth culture. The media used in this work were Buffered Peptone Water, Nutrient Broth and Tryptone Soya Agar. The media were prepared according to the manufacturer's instructions.
The selective agents, AEP (Cat. No. 06655) and alaphosphin (Cat. No. 05260), were supplied by Fluka. They were dissolved in water at 0.5M concentration, filter-sterilised, and 100 μl added to 10 ml of Nutrient Broth to give a final concentration in the test medium of 5 mM of AEP or alaphosphin respectively.
Klebsiella pneumnoniae CMCC3077 was chosen, as it is a food isolate and work had been carried out previously on this organism using alaphosphin and AEP (see preceding examples). The organism was inoculated into Nutrient Broth and incubated overnight at 37° C. […] The test media were incubated at 37° C., and sampled at hourly intervals. The cultures were serially diluted in Buffered Peptone Water and inoculated onto Tryptone Soya Agar. These plates were incubated overnight at 37° C. and the total viable count made the next day.
Typical results are shown in FIG. 15 which is a graph of total viable count (log10 cfu/ml) against time (hours).

[16] = system: heat stressed Salmonella typhimurium (OCC 1792); assay: resuscitation of heat-stressed cells, microtitre MPN method (Example 14); assay type: cell-based; settings: BPW supplemented with 3 different levels of AEP, relative to BPW alone
Protocol: Salmonella typhimurium (OCC 1792) was heat stressed at 51.4° C. for 25 minutes according to the protocol of Stephens et al. (1997 J. Appl. Micro. 8, 445-455). Cells were diluted in 7 different resuscitation media: yeast extract broth with a high reactive oxygen species content that is inhibitory to stressed cells, SPRINT enrichment broth supplemented with Oxyrase that is an optimised resuscitation medium, BPW as the control that has typical resuscitation properties, BPW supplemented with NaCl that is inhibitory to stressed cells, and BPW supplemented with 3 different levels of AEP. Resuscitation was quantified using a microtitre MPN method.
Typical results are shown in FIG. 20 which is a bar chart showing the difference in growth (Log cfu/ml) of the stressed cells in various media relative to growth in BPW alone.

MIC (Citrobacter freundii 370): 1.0 µg/mL (≈ 3.74 µM)
MIC [1]: 0.01 µg/mL (≈ 0.0374 µM)
MIC (E. coli 607): 0.05 µg/mL (≈ 0.187 µM)
MIC ([2]; Salmonella typhimurium 722, DMSal medium): 2.0 µg/mL (≈ 7.48 µM)
MIC [3]: 8 µg/mL (≈ 29.9 µM)
MIC [4]: 8 µg/mL (≈ 29.9 µM)
MIC (S. aureus (MRSA) 934): >100 µg/mL
MIC (S. aureus 198): >100 µg/mL
MIC (S. aureus ss aureus 2355): >100 µg/mL
MIC [5]: 16 µg/mL (≈ 59.9 µM)
MIC (Enterococcus faecium 220): >256 µg/mL
SMILES: CNCC(=O)NC(C)C(=O)NC(C)P(=O)(O)O (centres unmarked)
effect on growth of Salmonella typhimurium ([2]; sarcosyl-alanyl-AEP at 1.0 μg/ml, DMSal): no effect
concentration sufficient / required to inhibit the growth of all three undesired bacteria [6]: 1.0 µg/mL

SMILES: O=[N+]([O-])c1ccccc1O [2-nitrophenol]
Log Partition Coefficient [7]: 2.00^a

SMILES: CC(N)P(=O)(O)O [AEP, L-1-aminoethylphosphonic acid, reference compound]
concentration at which growth is inhibited [8]: ≥ 5 mM
concentration at which growth is completely inhibited [9]: > 10 mM
concentration at which growth is completely inhibited [10]: ≥ 5 mM
concentration at which growth is completely inhibited [11]: > 10 mM
sensitivity of growth (in words) [12]: completely insensitive
inhibition of growth (in words) (K. pneumoniae CMCC 3077 [13]): neither organism was inhibited
inhibition of growth (in words) (S. aureus OCC 102): neither organism was inhibited
concentration above which some sensitivity is exhibited (B. subtilis OCC 214): above 5 mM
sensitivity of growth (in words) (K. pneumoniae CMCC 3077 [14]): insensitive
effect on growth compared with Nutrient Broth control [15]: little effect
effect on resuscitation of heat-stressed Salmonella [16]: did not significantly affect

SMILES: Nc1ccccc1 [Aniline]
Log Partition Coefficient [7]: 0.94^a
